From the supplement of paper PMC10307832

How the values were obtained:
Experiment in all cases: relative viability (nuclei count vs DMSO), 5 days (fraction); higher = more cells survive
QS11 + Luminespib = compound: C1CC2=C(C1)C=C(C=C2)OC3=NC(=C4C(=N3)N(C=N4)CC5=CC=C(C=C5)C6=CC=CC=C6)N[C@@H](CC7=CC=CC=C7)CO [QS11] + CCNC(=O)c1noc(-c2cc(C(C)C)c(O)cc2O)c1-c1ccc(CN2CCOCC2)cc1 [Luminespib] (partner 0.01 µM)
Outline: (§1)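 Relative viability was taken as the ratio of nuclei in treated wells to nuclei in vehicle wells. Lung cancer cell lines in 1536-well plates received compounds by pin tool one day after seeding, either one drug alone or a fixed anchor-drug dose plus five library-drug doses (not always all listed) in √10 steps. Nuclei were counted on 4× images after 5 days of treatment, and values are medians of duplicate plates.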

QS11 + Crizotinib = compound: C1CC2=C(C1)C=C(C=C2)OC3=NC(=C4C(=N3)N(C=N4)CC5=CC=C(C=C5)C6=CC=CC=C6)N[C@@H](CC7=CC=CC=C7)CO [QS11] + C[C@@H](Oc1cc(-c2cnn(C3CCNCC3)c2)cnc1N)c1c(Cl)ccc(F)c1Cl [Crizotinib] (partner 1 µM)
Outline: as §1

AZ628 + OSI-027 = compound: CC1=C(C=C(C=C1)NC(=O)C2=CC(=CC=C2)C(C)(C)C#N)NC3=CC4=C(C=C3)N=CN(C4=O)C [AZ628] + COc1cccc2cc(-c3nc([C@H]4CC[C@H](C(=O)O)CC4)n4ncnc(N)c34)[nH]c12 [OSI-027] (partner 0.5 µM)
Outline: as §1

[1] = compound: C[As](C)SC[C@H](NC(=O)CC[C@H](N)C(=O)O)C(=O)NCC(=O)O [Darinaparsin] + O=C(CCCCCCC(=O)Nc1ccccc1)NO [Vorinostat] (partner 1 µM)
Outline: as §1

Cell Line	relative viability (QS11 + Luminespib; first compound 0.08 µM)	relative viability (QS11 + Luminespib; first compound 0.253 µM)	relative viability (QS11 + Luminespib; first compound 0.8 µM)	relative viability (QS11 + Luminespib; first compound 2.53 µM)	relative viability (QS11 + Luminespib; first compound 8 µM)	relative viability (QS11 + Crizotinib; first compound 0.08 µM)	relative viability (QS11 + Crizotinib; first compound 0.253 µM)	relative viability (QS11 + Crizotinib; first compound 0.8 µM)	relative viability (QS11 + Crizotinib; first compound 2.53 µM)	relative viability (QS11 + Crizotinib; first compound 8 µM)	relative viability (AZ628 + OSI-027; first compound 0.08 µM)	relative viability (AZ628 + OSI-027; first compound 0.253 µM)	relative viability (AZ628 + OSI-027; first compound 0.8 µM)	relative viability (AZ628 + OSI-027; first compound 2.53 µM)	relative viability (AZ628 + OSI-027; first compound 8 µM)	relative viability ([1]; first compound 0.08 µM)	relative viability ([1]; first compound 0.8 µM)	relative viability ([1]; first compound 2.53 µM)	relative viability ([1]; first compound 8 µM)
LU99A	0.238	0.269	0.284	0.273	0.335	0.554	0.586	0.544	0.446	0.385	0.271	0.313	0.268	0.288	0.239	0.477	0.47	0.524	0.455
NCI-H661	0.988	0.96	0.806	1.08	0.839	0.887	1.08	0.753	0.872	0.985	0.631	0.617	0.513	0.593	0.47	0.86	0.729	0.753	0.858
PC-14	–	0.14	0.183	0.135	0.148	0.851	0.896	0.871	0.848	0.911	0.727	0.956	0.733	0.666	0.329	0.691	0.753	0.545	0.572
SK-LU-1	0.21	0.192	0.211	0.223	0.211	1.1	0.822	0.63	0.544	0.785	–	0.315	0.276	0.33	0.208	0.742	0.784	0.591	0.702
NCI-H2085	0.376	0.474	0.286	0.403	0.546	0.907	0.95	0.84	0.776	0.802	0.913	0.754	0.803	0.667	0.332	0.73	0.732	0.827	0.764
NCI-H1666	1.01	1.1	0.702	0.728	0.519	0.995	0.808	0.668	0.52	0.432	0.827	0.789	0.676	0.744	0.656	1.2	0.899	1.18	1.08
NCI-H1650	0.193	0.209	0.201	0.192	0.216	0.994	0.843	0.868	0.986	0.894	0.642	0.793	0.666	0.557	0.458	0.64	0.499	0.628	0.683
NCI-H647	0.155	0.321	0.118	0.171	0.141	1.25	1.3	0.937	0.992	0.706	0.666	0.722	0.495	0.537	0.462	0.608	0.751	0.539	0.572
A-427	0.918	0.885	–	1.02	1.05	0.779	0.885	–	0.829	0.821	0.336	0.286	0.236	0.197	0.169	0.898	0.811	0.951	0.893
NCI-H1915	0.952	0.959	–	0.766	0.447	0.926	1.13	–	0.824	0.815	0.447	0.476	0.428	0.355	0.243	0.502	0.468	0.485	0.579
NCI-H1355	0.743	0.696	0.602	0.727	0.703	0.99	1.58	0.823	0.915	0.972	0.435	0.327	0.311	0.308	0.298	0.703	0.617	0.488	0.683
HCC-15	0.334	0.311	0.332	0.341	0.389	0.807	0.927	–	0.803	0.779	0.751	0.582	0.461	0.433	0.236	0.911	0.839	0.851	0.901
NCI-H23	0.212	0.237	0.208	0.227	0.182	0.473	0.462	0.473	0.385	0.44	0.568	0.528	0.464	0.474	0.309	0.62	0.485	0.663	0.716
NCI-H838	0.284	0.246	0.282	0.289	0.275	0.937	0.788	0.576	0.746	0.761	0.487	0.413	0.303	0.325	0.354	0.704	0.738	0.728	0.76
COR-L23	0.718	0.683	0.673	0.552	0.576	0.672	0.642	0.481	0.447	0.481	0.678	0.669	0.602	0.558	0.302	0.453	0.523	0.425	0.433
ChaGo-K-1	0.506	0.609	0.679	0.664	0.655	–	1.24	1.26	0.957	1.23	0.575	0.525	0.496	0.556	0.388	0.848	0.788	0.754	0.769
LCLC-103H	0.661	1.17	0.747	0.915	1.02	1.01	1.08	0.808	1	1.08	0.418	0.438	0.531	0.403	0.423	0.796	0.713	0.732	0.885

Cell Line	relative viability (QS11 + Luminespib; first compound 0.08 µM)	relative viability (QS11 + Luminespib; first compound 0.253 µM)	relative viability (QS11 + Luminespib; first compound 0.8 µM)	relative viability (QS11 + Luminespib; first compound 2.53 µM)	relative viability (QS11 + Luminespib; first compound 8 µM)	relative viability (QS11 + Crizotinib; first compound 0.08 µM)	relative viability (QS11 + Crizotinib; first compound 0.253 µM)	relative viability (QS11 + Crizotinib; first compound 0.8 µM)	relative viability (QS11 + Crizotinib; first compound 2.53 µM)	relative viability (QS11 + Crizotinib; first compound 8 µM)	relative viability (AZ628 + OSI-027; first compound 0.08 µM)	relative viability (AZ628 + OSI-027; first compound 0.253 µM)	relative viability (AZ628 + OSI-027; first compound 0.8 µM)	relative viability (AZ628 + OSI-027; first compound 2.53 µM)	relative viability (AZ628 + OSI-027; first compound 8 µM)	relative viability ([1]; first compound 0.08 µM)	relative viability ([1]; first compound 0.8 µM)	relative viability ([1]; first compound 2.53 µM)	relative viability ([1]; first compound 8 µM)
ABC-1	0.656	0.861	–	0.828	0.842	0.942	1.18	0.959	0.913	0.912	0.644	0.402	0.53	0.491	0.297	1.59	1.09	1.05	1.26
SW 1573	0.239	0.239	0.198	0.21	0.235	0.802	0.796	0.817	0.629	0.876	0.669	0.555	0.359	0.362	0.26	0.837	0.754	0.653	0.738
HARA	0.675	0.747	–	0.845	1.19	1.11	1.1	–	1.1	1.04	0.322	0.432	0.472	0.439	0.245	0.582	0.532	0.575	0.621
NCI-H1755	0.403	0.406	0.289	0.422	0.412	0.889	0.826	0.509	0.677	0.691	0.683	0.74	0.781	0.636	0.575	0.791	0.606	0.817	1.05
NCI-H460	0.0331	0.0356	0.0316	0.0243	0.0438	1.17	0.868	0.684	0.31	0.177	0.738	0.64	0.259	0.429	0.107	1.35	0.831	0.569	1
NCI-H2170	0.603	0.646	0.766	0.806	0.665	1.32	1.1	1.02	1.12	1.51	0.836	0.676	0.717	0.749	0.578	0.967	0.694	0.676	1.17
NCI-H3122	0.114	0.148	–	0.114	0.109	0.25	0.3	0.313	0.436	0.616	0.559	0.344	0.287	0.267	0.16	1.18	1.22	0.927	1.36
COR-L 105	0.838	0.7	0.649	0.776	0.664	1.04	0.735	0.616	0.618	0.702	0.751	0.837	0.795	0.763	0.46	0.908	0.656	0.822	0.932
NCI-H2087	0.136	0.186	–	0.158	0.172	0.849	0.794	0.65	0.652	0.573	0.52	0.335	0.213	0.274	0.13	0.932	0.839	0.892	1.14
NCI-H2347	0.367	0.571	0.505	0.352	0.886	0.683	0.645	0.671	0.501	0.76	0.337	0.377	0.396	0.339	0.254	0.477	0.541	0.679	0.718
201T	1.08	1.12	0.815	1.01	0.692	1.04	1.07	0.778	1.03	0.947	0.838	0.707	0.689	0.761	0.849	1.03	0.905	0.917	1.14
NCI-H358	0.435	0.457	0.479	0.414	0.444	0.723	0.525	0.457	0.402	0.379	0.647	0.602	0.403	0.354	0.286	0.744	0.636	0.594	0.745
NCI-H1993	0.831	0.74	0.739	0.77	0.68	0.974	0.756	0.868	0.827	0.771	0.541	0.578	0.53	0.594	0.577	0.765	0.855	0.697	0.827
NCI-H2009	1.01	1.15	0.823	0.905	0.935	1.02	1.09	0.882	1.03	0.791	0.537	0.452	0.287	0.327	0.243	0.866	0.717	0.645	0.72
EMC-BAC-2	1.28	1.27	0.817	0.953	0.961	0.892	0.75	0.529	0.741	0.541	0.397	0.425	0.477	0.436	0.448	0.554	0.417	0.546	0.42
NCI-H2023	0.789	0.916	0.554	0.624	0.814	0.774	0.537	0.586	0.641	0.648	0.369	0.374	0.329	0.309	0.234	0.662	0.554	0.707	0.666
RERF-LC-KJ	1.5	1.35	1.04	1.22	1.11	0.467	0.906	0.847	0.769	0.759	0.53	0.523	0.528	0.462	0.458	0.686	0.742	0.563	0.723
